Laboratory results reported in patent publication US7501453B2, “Cyclopropanes with central nervous system activity” (The Research Foundation of State University of New York, priority 2006, dated 2009).

The compounds below were run against T1, hSERT (Homo sapiens, UniProt P31645) (assay: Inhibition of [125I]RTI-55 binding to hSERT in HEK293 cell membranes). Conditions: not given.
T1 construct: expressed in transfected cells; host or cells: HEK293
Description: (§1) Unknowns are weighed and dissolved in DMSO to make a 10 mM stock solution. An initial dilution to 50 μM in assay buffer for binding, or to 1 mM in water for uptake, is made. Subsequent dilutions are made with assay buffer supplemented with DMSO, maintaining a final concentration of 0.1% DMSO. Pipetting is conducted using a Biomek 2000 robotic workstation.
(§2) Inhibition of Radioligand Binding of [125I]RTI-55 to hDAT, hSERT or hNET in Colonla Cells
(§3) Cell preparation: HEK293 cells expressing hDAT, hSERT or hNET inserts are grown to 80% confluence on 150 mm diameter tissue culture dishes and serve as the tissue source. Cell membranes are prepared as follows. Medium is poured off the plate, and the plate is washed with 10 ml of calcium- and magnesium-free phospate-buffered saline. Lysis buffer (10 ml; 2 mM HEPES with 1 mm EDTA) is added. After 10 min, cells are scraped from plates, poured into centrifuge tubes, and centrifuged […] for 20 min. The supernatant fluid is removed, and the pellet is resuspended in 12-32 ml of 0.32 m sucrose using a Ploytron at setting 7 for 10 sec. The resuspension volume depends on the density of binding sites within a cell line and is chosen to reflect binding of 10% or less to the total radioactivity.
(§4) Assay conditions: Each assay tube contains 50 μl of membrane preparation (about 10-15 μg of protein), 25 μl of unknown compound used to define non-specific binding, or buffer(Krebs-HEPES, pH 7.4;122 mM NaCl, 2.5 mM CaCl2, 1.2 mM MgSO4, 10 μM pargyline, 100 μM tropolone,0.2% glucose and 0.2% ascorbic acid, buffered with 25 mM HEPES) […] of [125I]RTI-55 (40-80 pM final concentration) and additional buffer sufficient to bring up the final volume to 250 μl. Membranes are preincubated with unknowns for 10 min prior to the addition of [125I]RTI-55. The assay tubes are incubated to 25° C. for 90 min. Binding is terminated by filtration over GF/F filters using Tomtec 96-well cell harvester. Fliter are washed for six seconds with ice cold saline. Scintillation fluid is added to each square and radioactivity remaining on the filter is determined using Wallac μ- or beta plate reader. Specific binding is defined as the difference in binding observed in the presence and absence of 5 μM mazindol (HEK-hDAT and HEK-hNET) or […] imipramine (HEK-hSERT). Two or three independent competition experiments are conducted with duplicate determinations. GraphPAD Prism is used to analyze the ensuing data, with IC50 values converted to Ki values using the Cheng-Prusoff equation (Ki=IC50/(1+([125I]RTI-55/KdRTI55))).

T1 sequence (P31645 whole entry): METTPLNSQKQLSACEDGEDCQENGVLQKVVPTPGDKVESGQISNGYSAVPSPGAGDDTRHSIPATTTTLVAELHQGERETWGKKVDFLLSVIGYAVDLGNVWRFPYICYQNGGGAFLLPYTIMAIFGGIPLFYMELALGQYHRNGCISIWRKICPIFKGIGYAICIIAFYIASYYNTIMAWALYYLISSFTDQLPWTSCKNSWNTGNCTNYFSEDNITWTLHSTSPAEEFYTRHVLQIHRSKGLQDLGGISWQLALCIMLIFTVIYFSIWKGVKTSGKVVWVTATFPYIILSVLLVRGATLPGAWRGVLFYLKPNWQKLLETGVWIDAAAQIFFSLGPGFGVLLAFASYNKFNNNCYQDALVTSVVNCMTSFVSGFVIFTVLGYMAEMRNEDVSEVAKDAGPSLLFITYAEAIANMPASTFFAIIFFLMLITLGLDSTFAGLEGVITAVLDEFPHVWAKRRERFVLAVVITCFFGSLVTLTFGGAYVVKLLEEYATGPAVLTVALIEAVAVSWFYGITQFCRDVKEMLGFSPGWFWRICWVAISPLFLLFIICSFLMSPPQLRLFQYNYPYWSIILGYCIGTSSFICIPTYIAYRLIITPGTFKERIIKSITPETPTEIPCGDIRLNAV

Row | Compound | Ki [µM]
1 | CNC[C@]1(c2ccccc2)C[C@H]1c1ccc2ccccc2c1 [compound 32698] | 0.014
2 | CNC[C@]1(c2ccccc2)C[C@H]1c1ccc(Cl)c(Cl)c1 [32,220] | 0.045

Same assay, conditions: [125I]RTI-55 displacement, HEK-hSERT membranes; IC50 converted to Ki (Cheng-Prusoff); read-out: Transporter SERT

Row | Compound | Ki [µM]
3 | CNC[C@@]1(c2ccccc2)C[C@@H]1c1ccc(Cl)c(Cl)c1 [32,219] | 0.114
4 | CNC[C@@]1(c2ccc(Cl)c(Cl)c2)C[C@@H]1c1ccccc1 [32,221] | 1.04
5 | CNC[C@]1(c2ccccc2)C[C@H]1c1ccccc1 [compound 32696] | > 7.3
6 | CNC[C@]1(c2ccc(Cl)c(Cl)c2)C[C@H]1c1ccccc1 [32,222] | 4.6
7 | CNC[C@@]1(c2ccc(Cl)c(Cl)c2)C[C@@H]1c1ccc(Cl)c(Cl)c1 [compound 32695] | 0.172
8 | CNC[C@@]1(c2ccccc2)C[C@@H]1c1ccccc1 [compound 32697] | > 10
9 | CNC[C@]1(c2ccc(Cl)c(Cl)c2)C[C@H]1c1ccc(Cl)c(Cl)c1 [compound 32694] | 1.53

What follows are compounds tested against T2, hNET (Homo sapiens, UniProt P23975) (assay: Inhibition of [125I]RTI-55 binding to hNET in HEK293 cell membranes). Conditions: [125I]RTI-55 displacement, HEK-hNET membranes; IC50 converted to Ki (Cheng-Prusoff); read-out: Transporter NET.
T2 construct: expressed in transfected cells; host or cells: HEK293
T2 sequence (P23975 whole entry): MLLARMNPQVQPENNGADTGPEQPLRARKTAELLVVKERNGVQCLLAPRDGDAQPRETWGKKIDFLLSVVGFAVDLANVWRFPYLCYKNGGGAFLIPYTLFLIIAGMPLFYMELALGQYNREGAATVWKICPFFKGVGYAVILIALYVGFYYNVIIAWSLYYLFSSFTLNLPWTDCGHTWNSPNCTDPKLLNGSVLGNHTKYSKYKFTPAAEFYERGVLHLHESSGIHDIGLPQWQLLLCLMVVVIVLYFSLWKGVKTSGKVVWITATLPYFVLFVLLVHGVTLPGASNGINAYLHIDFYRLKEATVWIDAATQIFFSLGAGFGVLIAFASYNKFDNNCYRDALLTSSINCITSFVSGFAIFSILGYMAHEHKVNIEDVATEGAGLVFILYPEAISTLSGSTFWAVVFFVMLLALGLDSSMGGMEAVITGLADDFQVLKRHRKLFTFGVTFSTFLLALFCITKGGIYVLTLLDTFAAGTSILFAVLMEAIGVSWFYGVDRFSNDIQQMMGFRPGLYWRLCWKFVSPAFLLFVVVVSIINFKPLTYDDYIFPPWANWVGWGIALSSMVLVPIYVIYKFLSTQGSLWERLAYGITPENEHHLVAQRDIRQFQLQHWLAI
Description: as §1, §2, §3, §4

Row | Compound | Ki [µM]
10 | CNC[C@]1(c2ccccc2)C[C@H]1c1ccc2ccccc2c1 [compound 32698] | 1.27
11 | CNC[C@@]1(c2ccccc2)C[C@@H]1c1ccc(Cl)c(Cl)c1 [32,219] | 1.87
12 | CNC[C@@]1(c2ccc(Cl)c(Cl)c2)C[C@@H]1c1ccccc1 [32,221] | 3.13
13 | CNC[C@]1(c2ccccc2)C[C@H]1c1ccccc1 [compound 32696] | 4.3
14 | CNC[C@]1(c2ccc(Cl)c(Cl)c2)C[C@H]1c1ccccc1 [32,222] | > 10
15 | CNC[C@@]1(c2ccc(Cl)c(Cl)c2)C[C@@H]1c1ccc(Cl)c(Cl)c1 [compound 32695] | 2.9
16 | CNC[C@@]1(c2ccccc2)C[C@@H]1c1ccccc1 [compound 32697] | 3.9
17 | CNC[C@]1(c2ccc(Cl)c(Cl)c2)C[C@H]1c1ccc(Cl)c(Cl)c1 [compound 32694] | 3.7
18 | CNC[C@]1(c2ccccc2)C[C@H]1c1ccc(Cl)c(Cl)c1 [32,220] | 1.46

The compounds below were run against T3, hDAT (Homo sapiens, UniProt Q01959) (assay: Inhibition of [125I]RTI-55 binding to hDAT in HEK293 cell membranes). Conditions: [125I]RTI-55 displacement, HEK-hDAT membranes; IC50 converted to Ki (Cheng-Prusoff); read-out: Transporter DAT.
T3 construct: expressed in transfected cells; host or cells: HEK293
T3 sequence (Q01959 whole entry): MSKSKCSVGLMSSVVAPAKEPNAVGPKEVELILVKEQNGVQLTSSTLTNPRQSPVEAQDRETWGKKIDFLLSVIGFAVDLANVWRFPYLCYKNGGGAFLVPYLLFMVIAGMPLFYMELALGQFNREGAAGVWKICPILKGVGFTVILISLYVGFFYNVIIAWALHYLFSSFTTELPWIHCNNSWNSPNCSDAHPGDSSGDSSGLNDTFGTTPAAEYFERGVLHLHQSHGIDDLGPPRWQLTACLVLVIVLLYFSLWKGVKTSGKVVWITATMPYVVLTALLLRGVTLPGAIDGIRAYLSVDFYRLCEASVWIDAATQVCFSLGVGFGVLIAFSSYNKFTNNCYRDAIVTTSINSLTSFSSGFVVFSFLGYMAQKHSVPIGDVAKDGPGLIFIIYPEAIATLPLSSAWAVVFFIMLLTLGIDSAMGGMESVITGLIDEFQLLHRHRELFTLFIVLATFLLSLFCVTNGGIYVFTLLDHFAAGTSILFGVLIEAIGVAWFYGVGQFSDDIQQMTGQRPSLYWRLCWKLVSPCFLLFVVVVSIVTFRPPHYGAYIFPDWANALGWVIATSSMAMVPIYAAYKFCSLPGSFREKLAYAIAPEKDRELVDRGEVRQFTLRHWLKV
Description: as §1, §2, §3, §4

Row | Compound | Ki [µM]
19 | CNC[C@]1(c2ccccc2)C[C@H]1c1ccc2ccccc2c1 [compound 32698] | 1.6
20 | CNC[C@@]1(c2ccccc2)C[C@@H]1c1ccc(Cl)c(Cl)c1 [32,219] | 0.218
21 | CNC[C@@]1(c2ccc(Cl)c(Cl)c2)C[C@@H]1c1ccccc1 [32,221] | 1.38
22 | CNC[C@]1(c2ccccc2)C[C@H]1c1ccccc1 [compound 32696] | 4.65
23 | CNC[C@]1(c2ccc(Cl)c(Cl)c2)C[C@H]1c1ccccc1 [32,222] | 6.6
24 | CNC[C@@]1(c2ccc(Cl)c(Cl)c2)C[C@@H]1c1ccc(Cl)c(Cl)c1 [compound 32695] | 0.73
25 | CNC[C@@]1(c2ccccc2)C[C@@H]1c1ccccc1 [compound 32697] | > 5.3
26 | CNC[C@]1(c2ccc(Cl)c(Cl)c2)C[C@H]1c1ccc(Cl)c(Cl)c1 [compound 32694] | 1.26
27 | CNC[C@]1(c2ccccc2)C[C@H]1c1ccc(Cl)c(Cl)c1 [32,220] | 1.45
